Measurements from patent publication US20220009920A1 (GB005, Inc., priority 2020, published 2022).

What was measured:
Assay in all cases: Large panel kinase profiling
Assay type in all cases: biochemical
Details in all cases: 1 μM test article, 1 mM ATP
ALK = ALK (Homo sapiens, UniProt Q9UM73)
How it was run: (§1)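 At 30° C., kinases turned over a CSox-Sensor peptide substrate with 1 mM ATP while 1 μM test article was present. Progress was followed by kinetic fluorescence readings.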

AURKB/AURB = AURKB/AURB (Homo sapiens, UniProt Q96GD4)
How it was run: as §1

CSNK1A1/CK1A1 = biological target: T1, CSNK1A1/CK1A1 (Homo sapiens, UniProt P48729)
T1 construct: AssayQuant Technologies, Inc. (service laboratory)
How it was run: as §1

DYRK1A = biological target: T2, DYRK1A (Homo sapiens, UniProt Q13627)
T2 construct: AssayQuant Technologies, Inc. (service laboratory)
How it was run: as §1

FGFR1 = FGFR1 (Homo sapiens, UniProt P11362)
How it was run: as §1

IRAK1 = IRAK1 (Homo sapiens, UniProt P51617)
How it was run: as §1

MAP3K7 = biological target: T3, MAP3K7 (Homo sapiens, UniProt O43318)
T3 construct: AssayQuant Technologies, Inc. (service provider)
T3 sequence (O43318 1-303 limits assumed): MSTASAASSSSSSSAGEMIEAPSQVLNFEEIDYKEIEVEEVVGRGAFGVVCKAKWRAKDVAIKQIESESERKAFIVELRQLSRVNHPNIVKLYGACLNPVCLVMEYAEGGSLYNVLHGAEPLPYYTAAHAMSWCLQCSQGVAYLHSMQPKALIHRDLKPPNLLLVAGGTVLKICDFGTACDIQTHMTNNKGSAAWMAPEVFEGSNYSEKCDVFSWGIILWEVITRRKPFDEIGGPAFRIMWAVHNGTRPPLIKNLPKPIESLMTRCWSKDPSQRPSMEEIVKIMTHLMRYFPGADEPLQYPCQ
How it was run: as §1

MAP4K3/GLK = biological target: T4, MAP4K3/GLK (Homo sapiens, UniProt Q8IVH8)
T4 construct: AssayQuant Technologies, Inc. (service provider)
T4 sequence (Q8IVH8 1-894): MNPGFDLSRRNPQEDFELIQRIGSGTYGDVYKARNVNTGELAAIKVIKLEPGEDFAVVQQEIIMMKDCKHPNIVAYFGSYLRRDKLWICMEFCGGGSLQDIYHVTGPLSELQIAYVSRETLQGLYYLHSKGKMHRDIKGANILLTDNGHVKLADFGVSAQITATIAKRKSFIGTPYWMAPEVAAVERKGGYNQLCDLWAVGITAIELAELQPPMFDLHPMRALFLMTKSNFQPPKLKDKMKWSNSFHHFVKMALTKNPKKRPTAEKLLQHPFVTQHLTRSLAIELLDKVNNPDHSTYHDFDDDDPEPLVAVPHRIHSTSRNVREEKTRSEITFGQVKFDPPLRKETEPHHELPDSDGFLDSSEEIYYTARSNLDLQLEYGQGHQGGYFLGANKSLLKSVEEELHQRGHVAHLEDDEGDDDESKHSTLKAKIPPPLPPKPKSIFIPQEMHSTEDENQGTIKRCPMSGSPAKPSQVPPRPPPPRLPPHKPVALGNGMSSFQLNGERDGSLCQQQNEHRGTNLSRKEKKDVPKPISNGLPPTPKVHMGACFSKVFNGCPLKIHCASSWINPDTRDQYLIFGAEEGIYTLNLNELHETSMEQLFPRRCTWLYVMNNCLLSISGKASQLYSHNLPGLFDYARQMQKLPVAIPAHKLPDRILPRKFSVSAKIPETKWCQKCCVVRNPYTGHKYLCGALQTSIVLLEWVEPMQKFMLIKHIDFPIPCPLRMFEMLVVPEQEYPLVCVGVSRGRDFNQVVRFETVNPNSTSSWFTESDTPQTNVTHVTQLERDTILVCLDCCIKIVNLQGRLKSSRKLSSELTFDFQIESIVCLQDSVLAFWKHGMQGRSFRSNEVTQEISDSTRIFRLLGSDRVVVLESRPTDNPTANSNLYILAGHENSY
How it was run: as §1

MAPK9/JNK2 = biological target: T5, MAPK9/JNK2 (Homo sapiens, UniProt P45984)
T5 construct: AssayQuant Technologies, Inc. (service provider)
How it was run: as §1

MELK = biological target: T6, MELK (Homo sapiens, UniProt Q14680)
T6 construct: AssayQuant Technologies, Inc. (assay service)
How it was run: as §1

PAK1 = PAK1 (Homo sapiens, UniProt Q13153)
How it was run: as §1

RAF1 = RAF1 (Homo sapiens, UniProt P04049)
How it was run: as §1

TSSK1 = biological target: T7, TSSK1 (Homo sapiens, UniProt Q9BXA7)
T7 construct: AssayQuant Technologies, Inc. (contract laboratory that ran the panel)
T7 sequence (Q9BXA7 1-367): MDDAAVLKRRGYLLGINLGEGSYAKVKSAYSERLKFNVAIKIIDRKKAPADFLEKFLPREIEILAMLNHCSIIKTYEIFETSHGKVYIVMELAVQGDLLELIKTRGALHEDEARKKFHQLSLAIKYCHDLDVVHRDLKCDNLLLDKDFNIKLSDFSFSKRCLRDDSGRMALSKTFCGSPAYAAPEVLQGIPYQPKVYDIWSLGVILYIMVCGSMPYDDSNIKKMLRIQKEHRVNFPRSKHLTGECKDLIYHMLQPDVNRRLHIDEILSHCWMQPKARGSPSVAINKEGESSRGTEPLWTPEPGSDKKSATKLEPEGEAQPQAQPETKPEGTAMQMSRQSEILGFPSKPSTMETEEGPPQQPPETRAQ
How it was run: as §1

T1 sequence (P48729 whole entry): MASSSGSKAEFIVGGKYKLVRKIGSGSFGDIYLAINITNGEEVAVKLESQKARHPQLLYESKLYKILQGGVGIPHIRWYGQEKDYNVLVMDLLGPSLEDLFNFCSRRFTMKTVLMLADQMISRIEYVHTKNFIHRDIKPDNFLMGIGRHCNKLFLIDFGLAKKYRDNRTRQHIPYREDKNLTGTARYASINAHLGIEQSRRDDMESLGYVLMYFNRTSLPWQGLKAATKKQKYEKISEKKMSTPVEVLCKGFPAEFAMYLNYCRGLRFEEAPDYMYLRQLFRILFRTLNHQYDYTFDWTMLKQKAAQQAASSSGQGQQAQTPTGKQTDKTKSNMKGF
PAK1, sequence (Q13153 whole entry): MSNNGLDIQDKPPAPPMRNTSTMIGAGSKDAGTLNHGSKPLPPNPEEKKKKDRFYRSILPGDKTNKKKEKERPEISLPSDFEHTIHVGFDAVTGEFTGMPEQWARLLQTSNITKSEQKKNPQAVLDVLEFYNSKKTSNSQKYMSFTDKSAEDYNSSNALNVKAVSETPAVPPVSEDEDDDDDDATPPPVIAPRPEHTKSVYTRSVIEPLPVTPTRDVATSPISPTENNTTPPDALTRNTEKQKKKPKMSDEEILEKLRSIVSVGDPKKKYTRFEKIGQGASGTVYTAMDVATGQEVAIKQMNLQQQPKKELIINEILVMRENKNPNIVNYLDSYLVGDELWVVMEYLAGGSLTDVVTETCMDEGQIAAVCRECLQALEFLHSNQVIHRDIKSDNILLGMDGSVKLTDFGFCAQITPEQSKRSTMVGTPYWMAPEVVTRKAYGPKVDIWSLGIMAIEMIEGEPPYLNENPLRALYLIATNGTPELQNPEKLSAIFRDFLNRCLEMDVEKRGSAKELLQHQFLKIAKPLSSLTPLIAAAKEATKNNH
RAF1, sequence (P04049 whole entry, species assumed): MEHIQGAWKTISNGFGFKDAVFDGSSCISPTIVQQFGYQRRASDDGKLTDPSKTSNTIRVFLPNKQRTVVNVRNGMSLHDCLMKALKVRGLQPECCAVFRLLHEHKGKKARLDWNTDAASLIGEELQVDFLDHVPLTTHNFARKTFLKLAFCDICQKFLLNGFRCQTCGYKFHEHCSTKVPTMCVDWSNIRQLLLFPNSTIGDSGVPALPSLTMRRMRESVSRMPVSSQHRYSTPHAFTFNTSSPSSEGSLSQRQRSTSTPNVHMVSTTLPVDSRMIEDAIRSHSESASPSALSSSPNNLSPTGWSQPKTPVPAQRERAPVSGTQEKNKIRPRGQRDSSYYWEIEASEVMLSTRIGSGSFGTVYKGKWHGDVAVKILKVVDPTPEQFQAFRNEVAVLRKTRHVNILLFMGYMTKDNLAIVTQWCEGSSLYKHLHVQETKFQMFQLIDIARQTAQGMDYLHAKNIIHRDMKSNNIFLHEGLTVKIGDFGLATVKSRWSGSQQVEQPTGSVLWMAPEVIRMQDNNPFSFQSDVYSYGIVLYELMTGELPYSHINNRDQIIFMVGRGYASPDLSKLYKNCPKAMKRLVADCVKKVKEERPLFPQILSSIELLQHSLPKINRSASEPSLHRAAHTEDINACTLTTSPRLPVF
AURKB/AURB, sequence (Q96GD4 whole entry): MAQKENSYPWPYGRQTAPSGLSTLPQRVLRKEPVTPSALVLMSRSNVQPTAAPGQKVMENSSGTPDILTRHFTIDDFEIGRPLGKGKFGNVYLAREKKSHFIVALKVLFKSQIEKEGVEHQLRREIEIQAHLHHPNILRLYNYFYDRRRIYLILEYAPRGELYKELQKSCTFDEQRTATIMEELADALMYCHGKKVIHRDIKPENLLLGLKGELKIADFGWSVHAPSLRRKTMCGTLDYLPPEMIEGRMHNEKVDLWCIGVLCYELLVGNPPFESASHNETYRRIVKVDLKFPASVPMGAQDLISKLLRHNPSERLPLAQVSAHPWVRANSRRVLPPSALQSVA
IRAK1, sequence (P51617 whole entry, species assumed): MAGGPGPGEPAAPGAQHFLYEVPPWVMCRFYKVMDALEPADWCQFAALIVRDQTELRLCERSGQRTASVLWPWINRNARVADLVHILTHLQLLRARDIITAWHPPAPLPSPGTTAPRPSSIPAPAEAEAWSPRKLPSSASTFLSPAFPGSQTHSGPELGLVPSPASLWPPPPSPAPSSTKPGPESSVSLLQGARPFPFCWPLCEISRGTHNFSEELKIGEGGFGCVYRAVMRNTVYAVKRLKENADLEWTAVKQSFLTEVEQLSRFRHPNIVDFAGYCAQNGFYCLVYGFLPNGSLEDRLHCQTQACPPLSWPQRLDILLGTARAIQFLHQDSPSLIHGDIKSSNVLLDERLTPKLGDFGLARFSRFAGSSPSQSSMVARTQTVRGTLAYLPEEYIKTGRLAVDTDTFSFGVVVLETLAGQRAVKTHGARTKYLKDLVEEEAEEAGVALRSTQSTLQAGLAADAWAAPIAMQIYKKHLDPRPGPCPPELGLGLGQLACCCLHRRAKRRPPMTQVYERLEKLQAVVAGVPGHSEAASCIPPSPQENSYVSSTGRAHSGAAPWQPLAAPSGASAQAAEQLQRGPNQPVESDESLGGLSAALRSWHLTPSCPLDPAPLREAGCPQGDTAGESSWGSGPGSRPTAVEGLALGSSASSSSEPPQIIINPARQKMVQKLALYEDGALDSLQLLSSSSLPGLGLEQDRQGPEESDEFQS
ALK, sequence (Q9UM73 19-1620): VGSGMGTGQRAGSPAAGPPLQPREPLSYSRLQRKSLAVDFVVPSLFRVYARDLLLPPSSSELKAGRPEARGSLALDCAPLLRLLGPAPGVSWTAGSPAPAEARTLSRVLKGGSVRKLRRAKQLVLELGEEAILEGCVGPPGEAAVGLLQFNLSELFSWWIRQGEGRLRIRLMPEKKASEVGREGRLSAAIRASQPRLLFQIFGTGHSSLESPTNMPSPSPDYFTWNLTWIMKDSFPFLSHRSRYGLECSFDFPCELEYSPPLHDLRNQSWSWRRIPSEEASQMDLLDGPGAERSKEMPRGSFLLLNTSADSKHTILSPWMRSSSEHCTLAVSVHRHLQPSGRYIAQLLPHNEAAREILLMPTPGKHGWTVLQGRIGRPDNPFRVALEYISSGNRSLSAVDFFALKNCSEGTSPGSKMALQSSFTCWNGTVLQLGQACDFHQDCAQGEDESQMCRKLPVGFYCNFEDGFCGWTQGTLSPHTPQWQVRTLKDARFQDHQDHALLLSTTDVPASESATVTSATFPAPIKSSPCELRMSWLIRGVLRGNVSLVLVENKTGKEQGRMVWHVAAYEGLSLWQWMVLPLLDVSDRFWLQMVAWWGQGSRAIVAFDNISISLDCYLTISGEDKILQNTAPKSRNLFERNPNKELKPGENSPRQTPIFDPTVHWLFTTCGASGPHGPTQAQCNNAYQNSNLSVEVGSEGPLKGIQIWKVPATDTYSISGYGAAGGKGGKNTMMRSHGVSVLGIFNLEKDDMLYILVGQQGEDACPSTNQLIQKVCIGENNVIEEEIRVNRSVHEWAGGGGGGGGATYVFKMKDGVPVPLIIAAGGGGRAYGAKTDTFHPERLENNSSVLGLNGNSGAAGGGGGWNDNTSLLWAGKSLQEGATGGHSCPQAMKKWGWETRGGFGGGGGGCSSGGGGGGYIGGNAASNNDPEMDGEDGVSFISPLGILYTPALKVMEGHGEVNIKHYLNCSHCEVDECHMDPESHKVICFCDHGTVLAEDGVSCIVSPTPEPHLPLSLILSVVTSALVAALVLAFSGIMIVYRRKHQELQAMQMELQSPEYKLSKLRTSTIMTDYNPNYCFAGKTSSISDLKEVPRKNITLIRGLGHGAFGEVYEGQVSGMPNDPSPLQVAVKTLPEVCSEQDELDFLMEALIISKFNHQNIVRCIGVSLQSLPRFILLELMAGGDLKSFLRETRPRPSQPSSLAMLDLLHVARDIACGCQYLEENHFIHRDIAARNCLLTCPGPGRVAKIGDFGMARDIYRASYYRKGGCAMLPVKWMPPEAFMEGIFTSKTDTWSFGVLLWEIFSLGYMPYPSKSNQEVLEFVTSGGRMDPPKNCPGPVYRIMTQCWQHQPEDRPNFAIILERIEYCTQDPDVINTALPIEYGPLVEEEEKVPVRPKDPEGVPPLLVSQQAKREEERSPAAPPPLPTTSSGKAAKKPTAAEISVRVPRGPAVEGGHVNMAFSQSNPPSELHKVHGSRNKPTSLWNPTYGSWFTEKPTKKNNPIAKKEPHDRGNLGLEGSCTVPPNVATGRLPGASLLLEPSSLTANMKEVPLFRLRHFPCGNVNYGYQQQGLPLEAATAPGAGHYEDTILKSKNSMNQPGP
T5 sequence (P45984 whole entry): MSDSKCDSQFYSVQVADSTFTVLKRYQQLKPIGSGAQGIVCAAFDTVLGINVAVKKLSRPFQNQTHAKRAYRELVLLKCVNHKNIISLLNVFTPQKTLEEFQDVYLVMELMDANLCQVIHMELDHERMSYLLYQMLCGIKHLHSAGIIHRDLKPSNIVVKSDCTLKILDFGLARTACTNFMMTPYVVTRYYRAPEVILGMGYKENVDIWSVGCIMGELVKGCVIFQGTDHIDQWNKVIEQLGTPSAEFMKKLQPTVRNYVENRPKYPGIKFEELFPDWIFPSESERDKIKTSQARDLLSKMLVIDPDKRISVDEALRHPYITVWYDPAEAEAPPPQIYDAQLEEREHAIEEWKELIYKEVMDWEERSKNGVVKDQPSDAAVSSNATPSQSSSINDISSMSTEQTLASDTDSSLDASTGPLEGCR

C=CC(=O)N1CCCC(c2c(F)cc(C(N)=O)c3[nH]c4c(c23)CCCCC4)C1 (single isomer, unassigned) [Compound 5-6]
inhibition at 1 µM (ALK): -26.4%
inhibition at 1 µM (AURKB/AURB): -19%
inhibition at 1 µM (CSNK1A1/CK1A1): 9.6%
inhibition at 1 µM (DYRK1A): 20.4%
inhibition at 1 µM (FGFR1): 18.4%
inhibition at 1 µM (IRAK1): -28.6%
inhibition at 1 µM (MAP3K7): -19.6%
inhibition at 1 µM (MAP4K3/GLK): -7.3%
inhibition at 1 µM (MAPK9/JNK2): -6.3%
inhibition at 1 µM (MELK): -27.6%
inhibition at 1 µM (PAK1): 9.3%
inhibition at 1 µM (RAF1): 3.7%
inhibition at 1 µM (TSSK1): 7.3%

C=CC(=O)N1CCC[C@@H](c2c(F)cc(C(N)=O)c3[nH]c4c(c23)CC2(CC4)CC2)C1 [Compound 6-2, (S)-5-(1-acryloylpiperidin-3-yl)-6-fluoro-1,2,4,9-tetrahydrospiro[carbazole-3,1′-cyclopropane]-8-carboxamide]
inhibition at 1 µM (ALK): 11.7%
inhibition at 1 µM (AURKB/AURB): -11.5%
inhibition at 1 µM (CSNK1A1/CK1A1): 11.2%
inhibition at 1 µM (DYRK1A): -2.2%
inhibition at 1 µM (FGFR1): 6.6%
inhibition at 1 µM (IRAK1): 5.6%
inhibition at 1 µM (MAP3K7): 10%
inhibition at 1 µM (MAP4K3/GLK): 6.2%
inhibition at 1 µM (MAPK9/JNK2): 19.7%
inhibition at 1 µM (MELK): -14.5%
inhibition at 1 µM (PAK1): 11.4%
inhibition at 1 µM (RAF1): 1%
inhibition at 1 µM (TSSK1): -3%

C=CC(=O)N1CCC[C@@H](c2c(F)cc(C(N)=O)c3[nH]c4c(c23)CCC4)C1 [Compound 10-2, (S)-8-(1-acryloylpiperidin-3-yl)-7-fluoro-1,2,3,4-tetrahydrocyclo-penta[b]indole-5-carboxamide]
inhibition at 1 µM (ALK): -2.7%
inhibition at 1 µM (AURKB/AURB): -14.9%
inhibition at 1 µM (CSNK1A1/CK1A1): -2.8%
inhibition at 1 µM (DYRK1A): 7.2%
inhibition at 1 µM (FGFR1): 8.7%
inhibition at 1 µM (IRAK1): 7.8%
inhibition at 1 µM (MAP3K7): 13.2%
inhibition at 1 µM (MAP4K3/GLK): 5%
inhibition at 1 µM (MAPK9/JNK2): 3.8%
inhibition at 1 µM (MELK): 11.1%
inhibition at 1 µM (PAK1): 6.8%
inhibition at 1 µM (RAF1): -3.1%
inhibition at 1 µM (TSSK1): 14%
